Measured values taken from patent publication US20110104159A1, “COMPOSITIONS AND METHODS FOR TREATING, CONTROLLING, REDUCING, AMELIORATING, OR PREVENTING ALLERGY” (priority 2006, published 2011).
“And” between values parts separate entries of the source, which are not always exact repeats. Equal values may be shown once. Read-outs that look alike come from different tables or passages of the source.

Experiments:
[1] = system: rabbit paracentesis model; assay: Clinical evaluation by slit lamp (clinical score), rabbit paracentesis model; type: in vivo; set-up: key to Clinical Score −180 min / Clinical Score −5 min / Clinical Score +115 min: 0: normal; 1: discrete dilatation of iris and conjunctival vessels; 2: moderate dilatation of iris and conjunctival vessels; 3: intense iridal hyperemia with flare in the anterior chamber; 4: intense iridal hyperemia with flare in the anterior chamber and presence of fibrinous exudates; conditions: for Clinical Score −5 min: 5 min before first paracentesis; for Clinical Score −5 min / Clinical Score +115 min / Clinical Score −180 min: individual eye, scale 0-4; for Clinical Score +115 min: 5 min before second paracentesis; for Clinical Score −180 min: basal
caspase-3 = assay: Caspase-3 activation in human eosinophils (Western blotting); type: cell-based; conditions: 24 h, 0.1% FBS; BOL-303242-X 1-1000 nM, dexamethasone 1000 nM
Experimental: Human eosinophils were pelleted and resuspended in 100 μl of CER I buffer (NE-PER™ Extraction reagent; Pierce). After 10 min incubation on ice, 5.5 μl of CER II buffer was added and the suspension was resuspended by vortexing, incubated on ice for 1 min and resuspended. The cytoplasmic fraction was separated by centrifugation at 16,000 g for 5 min. The protein content was quantified using a BCA protein assay (Pierce). The proteins of the cytoplasmic extract (50 μg) were denatured at 95° C. for 3 min, then loaded and separated by 15% sodium dodecyl sulfate-polyacrylamide gel electrophoresis (SDS-PAGE). We used MagicMark™ XP Western Standard as a molecular weight standard.
Proteins were transferred to Protran™ nitrocellulose membranes, which were blocked with 5% non-fat milk in TBS (10 mM Tris-HCl, pH 8, containing 150 mM NaCl) plus 0.1% Tween 20 for 1 h at room temperature (25° C.). The blots were probed overnight at 4° C. in TBS containing 0.1% Tween 20, 5% non-fat milk and antibodies with dilutions of 1:1000 for caspase-3 monoclonal antibody or 1:5000 for β-actin antibody (used as a loading control for cytoplasmic cell lysates). The former detects endogenous levels of procaspase-3 (around 32 kDa; p32) and its large subunit cleavage product of approximately 17 kDa (p17). The membranes were incubated with peroxidase-conjugated secondary antibodies at a dilution of 1:8000. […]

human eosinophils = assay: Cytokine-sustained (GM-CSF or IL-5) eosinophil survival; type: cell-based; conditions: for IC50: Homo sapiens, Eosinophil, 48 h, 0.1% FBS
human HMC-1 cells = assay: Ionomycin-induced cytokine/chemokine release in HMC-1 cells (Luminex); type: cell-based; conditions: HMC1, 18 h after ionomycin, 95% confidence limits in brackets
Experimental: A human mast cell line (HMC-1), a kind gift from Prof.
After 18 h stimulation at 37° C. in a 5% CO2 atmosphere, Interleukin-8 (IL-8) was measured in supernatants obtained from […] with a commercial ELISA kit from R&D Systems. The threshold sensitivity was 5 pg/ml and the inter- and intra-assay variations were less than 5%. The supernatants obtained from HMC-1 cells were aliquoted in duplicates for interleukin-6 (IL-6), IL-8, chemokine (C-C motif) ligand 5 (CCL5)/regulated upon activation, normal T-cell expressed and secreted (RANTES) and tumor necrosis factor-α (TNF-α) analysis using a high-throughput multiplex Luminex technology (Luminex 200 System; Luminex, Austin, Tx, USA) and Beadview software version 1.0 (Upstate Cell Signaling Solutions, Temecula, Calif.). Standard curves for known concentrations of recombinant human cytokines were used to convert median fluorescence intensities to cytokine concentrations in pg/ml. Only the linear portions of the standard curves were used to quantify cytokine concentrations, and in instances where the fluorescence reading exceeded the linear range of the standard curve, an appropriate dilution was performed to ensure that the concentration was in the linear portion of the curve.
The effect of BOL-303242-X on secretion of the reported cytokines and chemokines, 18 h after ionomycin ([…]) stimulation of HMC-1 cells, was determined in comparison to dexamenthasone. Compounds (1 nM-1000 nM) were added 45 min before ionomycin. Values were calculated by analyzing at least three separated experiments where concentration-response curves were measured. ^a95% Confidence limits.

[2] = conditions similar to the in vitro models used [28]; cited from earlier work

IC50 (human HMC-1 cells; read-out: IC50 (nM), CCL5/RANTES release induced by ionomycin): 88.7 nM
IC50 (human HMC-1 cells; read-out: IC50 (nM), Interleukin-6 release induced by ionomycin): 83.2 nM
IC50 (human HMC-1 cells; read-out: IC50 (nM), Interleukin-8 release induced by ionomycin): 66.5 nM
IC50 (human HMC-1 cells; read-out: IC50 (nM), TNF-α release induced by ionomycin): 43.8 nM
Compound: Cc1ccc2c(NC[C@](O)(CC(C)(C)c3cc(F)cc4c3OCC4)C(F)(F)F)cccc2n1 [BOL-303242-X, (R)-1,1,1-Trifluoro-4-(5-fluoro-2,3-dihydrobenzofuran-7-yl)-4-methyl-2-{[(2-methyl-5-quinolyl)amino]methyl}pentan-2-ol]
Clinical Score −5 min ([1]; 0.1% topical): 0
Clinical Score +115 min ([1]; 0.1% topical, listed as BOL): 2 (6×) and 3 (2×)
Percentage of eyes with clinical score 2 ([1]; 0.1% topical, +115 min, 8 eyes): 75%
Percentage of eyes with clinical score 3 ([1]; 0.1% topical, +115 min, 8 eyes): 25%
Clinical Score −180 min ([1]; 0.1% topical): 0
Percentage of eyes with clinical score 0 ([1]; 0.1% topical, −5 min, 8 eyes): 100%
Percentage of eyes with clinical score 0 ([1]; 0.1% topical, −180 min, 8 eyes): 100%
Clinical Score −5 min ([1]; 0.5% topical): 0
Clinical Score +115 min ([1]; 0.5% topical, listed as BOL): 2 (5×) and 1 (3×)
Percentage of eyes with clinical score 1 ([1]; 0.5% topical, +115 min, 8 eyes): 37.5%
Percentage of eyes with clinical score 2 ([1]; 0.5% topical, +115 min, 8 eyes): 62.5%
Clinical Score −180 min ([1]; 0.5% topical): 0
Percentage of eyes with clinical score 0 ([1]; 0.5% topical, −5 min, 8 eyes): 100%
Percentage of eyes with clinical score 0 ([1]; 0.5% topical, −180 min, 8 eyes): 100%
Clinical Score −5 min ([1]; 1% topical): 0
Clinical Score +115 min ([1]; 1% topical): 2
Percentage of eyes with clinical score 2 ([1]; 1% topical, +115 min, 8 eyes): 100%
Clinical Score −180 min ([1]; 1% topical): 0
Percentage of eyes with clinical score 0 ([1]; 1% topical, −5 min, 8 eyes): 100%
Percentage of eyes with clinical score 0 ([1]; 1% topical, −180 min, 8 eyes): 100%
Caspase-3 p17 subunit level (Western blot) (caspase-3): marked, concentration-dependent increase of the p17 subunit
Reversal of cytokine-sustained survival at higher cytokine concentrations (human eosinophils; GM-CSF 200 pM or IL-5 100 pM, data not shown): not, in fact, able to reverse cytokine-sustained survival
IC50 (human eosinophils; GM-CSF 70 pM, read-out: IC50, inhibition of GM-CSF-induced eosinophil survival): 158 nM
IC50 (human eosinophils; IL-5 30 pM, read-out: IC50, inhibition of interleukin-5-induced eosinophil survival): 399 nM
Stability of the compound [2]: stable
